# Data published in ChEMBL document CHEMBL2384988, “Discovery of 2-{3-[2-(1-isopropyl-3-methyl-1H-1,2-4-triazol-5-yl)-5,6-dihydrobenzo[f]imidazo[1,2-d][1,4]oxazepin-9-yl]-1H-pyrazol-1-yl}-2-methylpropanamide (GDC-0032): a β-sparing phosphoinositide 3-kinase inhibitor with high unbound exposure and robust in vivo antitumor activity” (J Med Chem, 2013).
# How the values were obtained:
# [1] = Kinetic solubility of the compound; assay type: physicochemical; settings: read-out: Kinetic_solubility
# [2] = cells; settings: Homo sapiens
# Description: Cytotoxicity against human MCF7-neo/Her2 cells after 3 to 4 days by CellTitre-Glo assay
# [3] = biological target: T1, Phosphatidylinositol 4,5-bisphosphate 3-kinase catalytic subunit alpha isoform (Homo sapiens, UniProt P42336)
# T1 sequence (P42336 whole entry, canonical isoform): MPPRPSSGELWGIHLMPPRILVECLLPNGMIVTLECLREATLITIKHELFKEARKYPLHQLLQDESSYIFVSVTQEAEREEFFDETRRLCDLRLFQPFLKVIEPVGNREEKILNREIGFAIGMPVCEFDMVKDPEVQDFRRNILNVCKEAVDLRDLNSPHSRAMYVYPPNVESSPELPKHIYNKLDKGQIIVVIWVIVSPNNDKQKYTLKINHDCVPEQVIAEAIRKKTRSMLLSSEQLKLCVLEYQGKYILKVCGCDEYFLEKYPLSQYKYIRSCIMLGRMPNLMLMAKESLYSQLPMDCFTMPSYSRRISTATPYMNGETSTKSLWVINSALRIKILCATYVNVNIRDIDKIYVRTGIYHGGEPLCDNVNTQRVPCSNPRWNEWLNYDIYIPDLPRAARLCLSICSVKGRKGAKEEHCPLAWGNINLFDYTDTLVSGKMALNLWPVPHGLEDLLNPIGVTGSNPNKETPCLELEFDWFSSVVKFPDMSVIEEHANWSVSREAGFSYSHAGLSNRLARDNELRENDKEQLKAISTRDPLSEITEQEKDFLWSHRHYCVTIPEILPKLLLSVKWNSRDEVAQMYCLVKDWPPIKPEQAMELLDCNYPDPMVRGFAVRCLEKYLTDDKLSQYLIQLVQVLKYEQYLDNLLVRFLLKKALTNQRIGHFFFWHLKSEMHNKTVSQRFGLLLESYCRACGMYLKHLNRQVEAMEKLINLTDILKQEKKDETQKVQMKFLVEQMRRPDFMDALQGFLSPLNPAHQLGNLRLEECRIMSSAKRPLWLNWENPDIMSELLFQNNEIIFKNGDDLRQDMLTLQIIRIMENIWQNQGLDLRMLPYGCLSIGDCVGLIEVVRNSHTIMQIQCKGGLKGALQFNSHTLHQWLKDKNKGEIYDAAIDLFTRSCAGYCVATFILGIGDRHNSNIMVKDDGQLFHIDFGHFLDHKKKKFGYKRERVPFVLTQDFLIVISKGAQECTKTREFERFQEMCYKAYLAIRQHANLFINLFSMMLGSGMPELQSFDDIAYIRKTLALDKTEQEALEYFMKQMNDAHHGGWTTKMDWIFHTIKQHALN
# Description: Inhibition of PI3Kalpha (unknown origin) assessed as 3,4,5-inositoltriphosphate formation after 30 mins by fluorescence polarization assay
# [4] = Intrinsic clearance in mouse liver microsomes after 1 hr by LC-MS/MS analysis; assay type: ADME, Microsome; settings: read-out: CLH
# [5] = biological target: T1, Phosphatidylinositol 4,5-bisphosphate 3-kinase catalytic subunit alpha isoform; remark: listed apart in the source
# Description: Inhibition of PI3Kalpha in human MCF7-neo/Her2 cells assessed as reduction of AKT phosphorylation at S473
# [6] = biological target: T1, Phosphatidylinositol 4,5-bisphosphate 3-kinase catalytic subunit alpha isoform; settings: 1 uM
# Description: Inhibition of PI3Kalpha (unknown origin) at 1 uM
# [7] = biological target: Phosphatidylinositol 4-phosphate 3-kinase C2 domain-containing subunit alpha (Homo sapiens, UniProt O00443); experiment: Inhibition of PI3KC2alpha (unknown origin)
# [8] = system: PC-3; experiment: Cytotoxicity against human PC3 cells; assay type: functional, cell-based
# [9] = system: Mus musculus; experiment: Toxicity in nude mouse xenografted with human MCF7-neo/Her2 cells assessed as body weight loss relative to vehicle-treated control; assay type: organism-based
# [10] = (§1) AUCtotal in nude mouse at 1 mg/kg, iv and 25 mg/kg, po; assay type: ADME, organism-based, Plasma; settings: nude, plasma
# [11] = biological target: Serine/threonine-protein kinase mTOR (Homo sapiens, UniProt P42345); experiment: Inhibition of mTOR (unknown origin)
# [12] = Plasma clearance in nude mouse at 1 mg/kg, iv and 25 mg/kg, po; assay type: ADME, organism-based
# [13] = Plasma protein binding in rat; assay type: ADME, cell-free; settings: read-out: PPB (converted)
# [14] = system: Plasma; experiment: (§2) Plasma protein binding in mouse by equilibrium dialysis; assay type: ADME, cell-free
# [15] = system: Mus musculus; experiment: Unbound AUC in nude mouse at 1 mg/kg, iv and 25 mg/kg, po; assay type: ADME, organism-based; settings: in vivo
# [16] = animal or person; settings: Homo sapiens, po, 480 h, read-out: TGI
# Description: Antitumor activity against human MCF7-neo/Her2 cells xenografted in nude mouse at 22.5 mg/kg, po qd for 20 days relative to vehicle-treated control
# [17] = biological target: Phosphatidylinositol 4-phosphate 3-kinase C2 domain-containing subunit beta (Homo sapiens, UniProt O00750); experiment: Inhibition of PI3KC2beta (unknown origin)
# [18] = biological target: DNA-dependent protein kinase catalytic subunit (Homo sapiens, UniProt P78527); experiment: Inhibition of DNA-dependent protein kinase (unknown origin)
# Chain of DNA-dependent protein kinase catalytic subunit (P78527 whole entry, canonical isoform): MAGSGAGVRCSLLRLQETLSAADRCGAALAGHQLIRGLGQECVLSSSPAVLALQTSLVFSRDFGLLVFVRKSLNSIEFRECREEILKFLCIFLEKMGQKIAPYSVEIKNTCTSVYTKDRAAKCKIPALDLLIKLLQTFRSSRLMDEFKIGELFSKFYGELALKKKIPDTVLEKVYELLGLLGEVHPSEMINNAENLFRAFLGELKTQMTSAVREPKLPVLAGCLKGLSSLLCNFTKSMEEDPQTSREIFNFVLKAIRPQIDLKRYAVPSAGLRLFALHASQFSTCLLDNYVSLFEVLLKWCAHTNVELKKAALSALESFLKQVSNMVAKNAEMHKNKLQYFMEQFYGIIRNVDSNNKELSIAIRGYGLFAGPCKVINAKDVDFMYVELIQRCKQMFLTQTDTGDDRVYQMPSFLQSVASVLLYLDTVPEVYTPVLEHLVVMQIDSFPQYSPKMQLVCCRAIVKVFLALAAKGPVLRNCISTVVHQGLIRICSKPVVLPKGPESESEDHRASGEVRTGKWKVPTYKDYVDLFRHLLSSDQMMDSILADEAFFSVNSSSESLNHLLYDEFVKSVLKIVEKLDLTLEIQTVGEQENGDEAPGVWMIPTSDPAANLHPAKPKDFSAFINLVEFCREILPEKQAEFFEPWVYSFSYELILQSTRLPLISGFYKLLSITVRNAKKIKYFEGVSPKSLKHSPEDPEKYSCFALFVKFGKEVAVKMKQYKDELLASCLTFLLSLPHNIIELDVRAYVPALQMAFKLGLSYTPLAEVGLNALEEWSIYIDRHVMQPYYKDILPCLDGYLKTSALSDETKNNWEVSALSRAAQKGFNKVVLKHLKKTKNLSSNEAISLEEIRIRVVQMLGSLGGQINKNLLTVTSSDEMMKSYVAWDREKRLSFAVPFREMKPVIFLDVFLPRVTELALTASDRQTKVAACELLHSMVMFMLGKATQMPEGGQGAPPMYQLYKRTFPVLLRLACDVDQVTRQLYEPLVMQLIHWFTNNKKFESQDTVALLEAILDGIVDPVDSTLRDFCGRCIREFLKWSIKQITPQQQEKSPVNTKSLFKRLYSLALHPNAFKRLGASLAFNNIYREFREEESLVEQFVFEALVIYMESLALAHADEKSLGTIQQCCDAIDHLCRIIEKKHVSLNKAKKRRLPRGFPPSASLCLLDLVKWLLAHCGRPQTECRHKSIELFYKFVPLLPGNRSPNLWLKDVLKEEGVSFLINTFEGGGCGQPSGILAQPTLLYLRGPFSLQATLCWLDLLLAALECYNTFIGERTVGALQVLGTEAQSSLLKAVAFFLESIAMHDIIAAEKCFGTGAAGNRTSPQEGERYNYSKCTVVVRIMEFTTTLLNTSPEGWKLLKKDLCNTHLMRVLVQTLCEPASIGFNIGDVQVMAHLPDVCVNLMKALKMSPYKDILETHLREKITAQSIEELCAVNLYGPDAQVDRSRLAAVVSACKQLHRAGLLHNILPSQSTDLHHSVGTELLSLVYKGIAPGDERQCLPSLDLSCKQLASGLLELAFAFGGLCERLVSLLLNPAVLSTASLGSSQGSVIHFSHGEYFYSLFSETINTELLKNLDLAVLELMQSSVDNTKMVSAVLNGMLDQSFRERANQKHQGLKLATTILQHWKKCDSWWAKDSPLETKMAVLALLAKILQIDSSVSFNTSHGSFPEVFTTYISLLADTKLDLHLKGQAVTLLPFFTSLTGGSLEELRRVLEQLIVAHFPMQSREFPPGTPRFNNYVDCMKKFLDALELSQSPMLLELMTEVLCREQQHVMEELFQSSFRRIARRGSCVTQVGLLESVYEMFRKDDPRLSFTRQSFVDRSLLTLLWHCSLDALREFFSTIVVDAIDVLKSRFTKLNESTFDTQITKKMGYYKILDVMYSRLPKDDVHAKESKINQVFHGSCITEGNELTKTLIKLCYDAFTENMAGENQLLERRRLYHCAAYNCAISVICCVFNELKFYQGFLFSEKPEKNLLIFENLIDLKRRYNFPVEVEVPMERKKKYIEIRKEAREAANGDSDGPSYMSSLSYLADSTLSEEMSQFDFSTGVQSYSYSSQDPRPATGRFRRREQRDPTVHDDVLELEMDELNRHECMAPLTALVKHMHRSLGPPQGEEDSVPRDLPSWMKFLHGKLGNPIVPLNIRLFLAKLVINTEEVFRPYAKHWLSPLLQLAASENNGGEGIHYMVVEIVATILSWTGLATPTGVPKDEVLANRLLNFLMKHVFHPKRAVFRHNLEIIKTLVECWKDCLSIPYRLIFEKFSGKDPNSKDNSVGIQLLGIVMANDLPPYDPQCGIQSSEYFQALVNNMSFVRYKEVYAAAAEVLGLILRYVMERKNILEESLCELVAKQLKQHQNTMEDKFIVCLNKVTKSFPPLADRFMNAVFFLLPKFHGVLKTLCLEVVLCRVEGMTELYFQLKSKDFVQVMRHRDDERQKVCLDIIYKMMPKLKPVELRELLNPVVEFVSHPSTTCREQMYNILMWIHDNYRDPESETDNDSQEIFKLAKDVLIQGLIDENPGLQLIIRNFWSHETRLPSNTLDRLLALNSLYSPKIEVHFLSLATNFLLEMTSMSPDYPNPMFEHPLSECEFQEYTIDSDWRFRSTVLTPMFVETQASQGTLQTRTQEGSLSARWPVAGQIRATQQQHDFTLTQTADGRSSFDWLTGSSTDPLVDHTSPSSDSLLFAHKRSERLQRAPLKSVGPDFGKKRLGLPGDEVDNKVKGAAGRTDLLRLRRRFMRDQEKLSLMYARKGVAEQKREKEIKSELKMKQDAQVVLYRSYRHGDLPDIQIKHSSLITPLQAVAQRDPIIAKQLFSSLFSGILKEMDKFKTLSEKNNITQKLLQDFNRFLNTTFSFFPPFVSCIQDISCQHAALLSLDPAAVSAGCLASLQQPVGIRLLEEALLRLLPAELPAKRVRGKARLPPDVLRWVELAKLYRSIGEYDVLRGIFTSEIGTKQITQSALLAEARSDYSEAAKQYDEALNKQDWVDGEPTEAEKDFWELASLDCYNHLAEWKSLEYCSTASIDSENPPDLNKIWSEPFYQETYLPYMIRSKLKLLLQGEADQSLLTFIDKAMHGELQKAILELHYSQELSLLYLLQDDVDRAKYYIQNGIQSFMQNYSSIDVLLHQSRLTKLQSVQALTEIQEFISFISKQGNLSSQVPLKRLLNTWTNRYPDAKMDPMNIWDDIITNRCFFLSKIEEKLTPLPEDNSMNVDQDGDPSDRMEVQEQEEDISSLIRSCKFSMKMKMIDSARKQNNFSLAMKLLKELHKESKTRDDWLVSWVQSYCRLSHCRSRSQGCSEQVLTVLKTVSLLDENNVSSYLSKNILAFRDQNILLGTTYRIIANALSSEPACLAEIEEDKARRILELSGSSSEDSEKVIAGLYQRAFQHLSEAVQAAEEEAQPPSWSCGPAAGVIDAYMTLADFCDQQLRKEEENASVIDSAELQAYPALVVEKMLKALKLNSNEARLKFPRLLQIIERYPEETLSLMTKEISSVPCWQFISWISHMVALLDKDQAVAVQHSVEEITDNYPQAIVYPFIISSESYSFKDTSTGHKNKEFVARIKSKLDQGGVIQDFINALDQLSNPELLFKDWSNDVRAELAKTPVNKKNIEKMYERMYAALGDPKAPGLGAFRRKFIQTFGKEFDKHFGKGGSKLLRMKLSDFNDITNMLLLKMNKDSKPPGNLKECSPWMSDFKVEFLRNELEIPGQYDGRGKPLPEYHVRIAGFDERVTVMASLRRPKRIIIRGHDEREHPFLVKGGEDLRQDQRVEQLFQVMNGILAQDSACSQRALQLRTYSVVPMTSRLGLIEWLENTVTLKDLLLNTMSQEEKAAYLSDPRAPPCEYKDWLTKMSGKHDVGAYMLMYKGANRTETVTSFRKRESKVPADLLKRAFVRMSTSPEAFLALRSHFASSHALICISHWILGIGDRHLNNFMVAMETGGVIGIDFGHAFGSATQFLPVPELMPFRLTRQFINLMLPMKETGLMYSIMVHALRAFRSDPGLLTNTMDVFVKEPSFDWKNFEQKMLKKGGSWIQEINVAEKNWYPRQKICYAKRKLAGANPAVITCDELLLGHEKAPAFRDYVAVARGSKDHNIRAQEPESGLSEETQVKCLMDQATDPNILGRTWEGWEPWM
# [19] = biological target: T2, Phosphatidylinositol 4,5-bisphosphate 3-kinase catalytic subunit delta isoform (Homo sapiens) (UniProt O00329); settings: 1 uM
# T2 sequence (whole entry): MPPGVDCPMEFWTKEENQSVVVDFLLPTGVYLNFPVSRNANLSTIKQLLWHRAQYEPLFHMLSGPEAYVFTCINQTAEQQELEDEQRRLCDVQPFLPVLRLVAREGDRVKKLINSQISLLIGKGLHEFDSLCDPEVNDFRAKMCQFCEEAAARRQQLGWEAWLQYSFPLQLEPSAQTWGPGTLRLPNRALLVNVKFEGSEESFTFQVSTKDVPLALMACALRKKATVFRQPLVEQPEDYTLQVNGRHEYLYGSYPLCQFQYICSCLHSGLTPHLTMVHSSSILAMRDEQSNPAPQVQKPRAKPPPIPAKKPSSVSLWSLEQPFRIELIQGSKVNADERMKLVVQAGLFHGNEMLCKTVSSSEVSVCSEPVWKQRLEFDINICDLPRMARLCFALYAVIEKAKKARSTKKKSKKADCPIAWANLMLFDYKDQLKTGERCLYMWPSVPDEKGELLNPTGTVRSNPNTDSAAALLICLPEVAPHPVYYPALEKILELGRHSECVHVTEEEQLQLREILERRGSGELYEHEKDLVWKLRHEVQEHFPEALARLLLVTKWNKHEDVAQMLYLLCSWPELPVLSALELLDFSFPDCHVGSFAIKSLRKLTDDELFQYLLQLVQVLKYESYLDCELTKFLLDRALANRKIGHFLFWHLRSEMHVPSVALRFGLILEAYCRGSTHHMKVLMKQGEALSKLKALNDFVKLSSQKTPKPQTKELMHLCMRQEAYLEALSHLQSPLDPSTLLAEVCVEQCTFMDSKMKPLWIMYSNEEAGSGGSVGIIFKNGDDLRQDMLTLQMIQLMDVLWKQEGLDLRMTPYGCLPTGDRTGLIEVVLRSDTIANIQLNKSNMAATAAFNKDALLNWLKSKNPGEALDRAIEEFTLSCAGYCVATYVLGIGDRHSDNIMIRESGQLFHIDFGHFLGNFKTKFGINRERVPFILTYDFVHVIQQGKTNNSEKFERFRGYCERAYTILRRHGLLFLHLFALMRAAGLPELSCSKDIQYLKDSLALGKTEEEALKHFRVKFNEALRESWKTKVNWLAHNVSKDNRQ
# Description: Inhibition of PI3Kdelta (unknown origin) at 1 uM
# [20] = biological target: Phosphatidylinositol 3-kinase catalytic subunit type 3 (Homo sapiens, UniProt Q8NEB9); experiment: Inhibition of human VPS34
# [21] = animal or person; settings: Homo sapiens, po, 480 h, read-out: TGI; remark: listed apart in the source
# Description: Antitumor activity against human MCF7-neo/Her2 cells xenografted in nude mouse at 11.25 mg/kg, po qd for 20 days relative to vehicle-treated control
# [22] = Oral bioavailability in Sprague-Dawley rat; assay type: ADME, organism-based; settings: in vivo
# [23] = Plasma clearance in Sprague-Dawley rat; assay type: ADME, organism-based
# [24] = Plasma protein binding in human; assay type: ADME, cell-free; settings: read-out: PPB (converted)
# [25] = system: Mus musculus; experiment: In vivo inhibition of PI3Kalpha in human MCF7-neo/Her2 cells xenografted in nude mouse assessed as reduction in AKT phosphorylation at S473 at 2.8 mg/kg, po measured after 1 hr; assay type: functional; parameters: scale not given: the % may be the effect or the level left
# [26] = Oral bioavailability in mouse; assay type: ADME, organism-based; settings: in vivo
# [27] = system: Mus musculus; experiment: Unbound clearance in nude mouse at 1 mg/kg, iv and 25 mg/kg, po; assay type: ADME, organism-based; settings: in vivo
# [28] = system: Mus musculus; experiment: as §1; assay type: ADME, organism-based, Plasma; settings: in vivo
# [29] = as §2; assay type: ADME, cell-free; settings: read-out: PPB (converted)
# [30] = AUCtotal in nude mouse at 100 mg/kg, po; assay type: ADME, organism-based; parameters: time AUCmax, dose 100 mg/kg, route oral; settings: plasma
# [31] = system: Mus musculus; experiment: Unbound AUC in nude mouse at 100 mg/kg, po; assay type: ADME, organism-based; parameters: dose 100 mg/kg, route oral; settings: in vivo
smiles,measurement,setting,value
Cc1n[nH]c(-c2cn3c(n2)-c2ccc(-c4cnn(CCO)c4)cc2OCC3)n1,solubility kinetic,[1],95.8 µM
same,IC50,[2],> 10000 nM
same,Ki,[3],21.1 nM
Cc1nc(-c2cn3c(n2)-c2ccc(-c4cnn(CCO)c4)cc2OCC3)n(C)n1,solubility kinetic,[1],2.4 µM
same,IC50,[2],1400 nM
same,CLint scaled,[4],100 mL/min/kg
same,Ki,[3],2.8 nM
Cc1nc(-c2cn3c(n2)-c2ccc(-c4cnn(C5CN(CCO)C5)c4)cc2OCC3)n(C(C)C)n1,solubility kinetic,[1],109 µM
same,IC50,[2],120 nM
same,CLint scaled,[4],58 mL/min/kg
same,IC50,[5],1.4 nM
same,Ki,[3],0.11 nM
Cc1nc(-c2cn3c(n2)-c2ccc(-c4cnn(C(C)(C)C(N)=O)c4)cc2OCC3)n(C(C)C)n1 [TASELISIB],solubility kinetic,[1],33.1 µM
same,inhibition,[6],98.6%
same,IC50,[7],> 10000 nM
same,IC50,[2],25 nM
same,EC50,[8],571 nM
same,Activity,[9],< 10%
same,AUC,[10],388 µM·h
same,Ki,[11],1200 nM
same,clearance,[12],2.7 mL/min/kg
same,fraction unbound,[13],0.02
same,PPB,[14],89.3%
same,fAUC,[15],42 µM·h
same,inhibition in vivo at 22.5 mg/kg,[16],123%
same,IC50,[17],292 nM
same,CLint scaled,[4],41.1 mL/min/kg
same,IC50,[18],> 4800 nM
same,inhibition,[19],97.9%
same,IC50,[20],374 nM
same,inhibition in vivo at 11.25 mg/kg,[21],103%
same,bioavailability,[22],99%
same,clearance,[23],1.8 mL/min/kg
same,fraction unbound,[24],0.24
same,Activity,[25],59%
same,bioavailability,[26],100%
same,CL free,[27],25 mL/min/kg
Cc1nc(-c2cn3c(n2)-c2ccc(-c4cnn(CCO)c4)cc2OCC3)n(C(C)C)n1,IC50,[2],138 nM
same,AUC,[28],291 µM·h
same,fraction unbound,[29],0.018
same,fAUC,[15],5.2 µM·h
same,CLint scaled,[4],68.1 mL/min/kg
same,IC50,[5],4.5 nM
same,CL free,[27],83 mL/min/kg
CC(C)n1ncnc1-c1nc2c(s1)CCOc1cc(-c3cnn(CCO)c3)ccc1-2,AUC,[30],275 µM·h
same,IC50,[2],195 nM
same,AUC,[10],112 µM·h
same,fraction unbound,[29],0.002
same,fAUC,[15],0.22 µM·h
same,fAUC,[31],0.55 µM·h
same,CL free,[27],4750 mL/min/kg
CC(C)n1ncnc1-c1cn2c(n1)-c1ccc(-c3cn[nH]c3)cc1OCC2,solubility kinetic,[1],< 1 µM
same,IC50,[2],218 nM
same,CLint scaled,[4],550 mL/min/kg
same,Ki,[3],0.31 nM
CC(C)n1ncnc1-c1cn2c(n1)-c1ccc(-c3cnn(CC(C)(C)O)c3)cc1OCC2,solubility kinetic,[1],12.4 µM
same,IC50,[2],81 nM
same,AUC,[28],156 µM·h
same,fraction unbound,[29],0.017
same,fAUC,[15],2.7 µM·h
same,CLint scaled,[4],44.3 mL/min/kg
same,IC50,[5],9.4 nM
same,CL free,[27],282 mL/min/kg
same,Ki,[3],0.14 nM
CC(C)n1ncnc1-c1cn2c(n1)-c1ccc(-c3cnn(CCO)c3)cc1OCC2,solubility kinetic,[1],5.1 µM
same,IC50,[2],92 nM
same,CLint scaled,[4],42.9 mL/min/kg
same,IC50,[5],5.4 nM
same,Ki,[3],0.17 nM
OCCn1cc(-c2ccc3c(c2)OCCn2cc(-c4ncnn4CC(F)(F)F)nc2-3)cn1,solubility kinetic,[1],7.6 µM
same,IC50,[2],66 nM
same,CLint scaled,[4],28 mL/min/kg
same,IC50,[5],2.9 nM
same,Ki,[3],< 1 nM
CS(=O)(=O)N1CCN(Cc2cc3nc(-c4cccc5[nH]ncc45)nc(N4CCOCC4)c3s2)CC1 [PICTILISIB],AUC,[30],80.3 µM·h
same,Activity,[9],< 10%
same,fAUC,[31],3.5 µM·h
Cc1nc(-c2cn3c(n2)-c2ccc(-c4cnn(C5CN(C(=O)[C@H](C)O)C5)c4)cc2OCC3)n(C(C)C)n1,solubility kinetic,[1],78.2 µM
same,IC50,[2],102 nM
same,CLint scaled,[4],23 mL/min/kg
same,IC50,[5],0.93 nM
same,Ki,[3],0.34 nM
Cc1nc(-c2cn3c(n2)-c2ccc(-c4cnn(CCN5CCOCC5)c4)cc2OCC3)n(C(C)C)n1,solubility kinetic,[1],52.3 µM
same,IC50,[2],248 nM
same,CLint scaled,[4],89.4 mL/min/kg
same,IC50,[5],35 nM
same,Ki,[3],0.3 nM
Cc1nc(-c2cn3c(n2)-c2ccc(-c4cnn(C)c4)cc2OCC3)n(C(C)C)n1,solubility kinetic,[1],2 µM
same,IC50,[2],157 nM
same,CLint scaled,[4],82 mL/min/kg
same,IC50,[5],0.71 nM
same,Ki,[3],0.29 nM
